The values below come from PubChem BioAssay AID1259407 (Chemical Carcinogenesis Research Information System (CCRIS), 2018).

Calls of active or inactive are those of the source. No rule for the calls is given here.

The test system of the series is CCRIS mutagenicity, Ames/micronucleus/aberration tests. The experiment in a line: CCRIS mutagenicity studies.
The mark [1] stands for this setting: Test System: AMES SALMONELLA TYPHIMURIUM, Strain/Indicator: TA98, Metabolic Activation: NONE, Method: PREINCUBATION
[2] abbreviates: Test System: AMES SALMONELLA TYPHIMURIUM, Strain/Indicator: TA100, Metabolic Activation: NONE, Method: PREINCUBATION
Where [3] appears, read: Test System: AMES SALMONELLA TYPHIMURIUM, Strain/Indicator: TA1537, Metabolic Activation: NONE, Method: PREINCUBATION
The mark [4] stands for this setting: Test System: AMES SALMONELLA TYPHIMURIUM, Strain/Indicator: TA1538, Metabolic Activation: RAT, LIVER, S-9, AROCLOR 1254, Method: STANDARD PLATE.
Where [5] appears, read: Test System: AMES SALMONELLA TYPHIMURIUM, Strain/Indicator: TA98, Metabolic Activation: NONE, Method: STANDARD PLATE.
Setting [6] is: Test System: AMES SALMONELLA TYPHIMURIUM, Strain/Indicator: TA98, Metabolic Activation: RAT, LIVER, S-9, AROCLOR 1254, Method: STANDARD PLATE.
Setting [7] is: Test System: AMES SALMONELLA TYPHIMURIUM, Strain/Indicator: TA100, Metabolic Activation: NONE, Method: STANDARD PLATE.

As to `CC(=O)C(N=Nc1ccc(-c2ccc(N=NC(C(C)=O)C(=O)Nc3ccccc3)c(Cl)c2)cc1Cl)C(=O)Nc1ccccc1` (stereo not drawn), the mutagenic call runs as follows: (Test System: AMES SALMONELLA TYPHIMURIUM, Strain/Indicator: TA98, Metabolic Activation: HAMSTER, LIVER, S-9, AROCLOR 1254 (10%), Method: PREINCUBATION) “inactive; negative”; under setting [1], “inactive; negative”; (Test System: AMES SALMONELLA TYPHIMURIUM, Strain/Indicator: TA98, Metabolic Activation: RAT, LIVER, S-9, AROCLOR 1254 (10%), Method: PREINCUBATION) “inactive; negative”; (Test System: AMES SALMONELLA TYPHIMURIUM, Strain/Indicator: TA100, Metabolic Activation: HAMSTER, LIVER, S-9, AROCLOR 1254 (10%), Method: PREINCUBATION) “inactive; negative”; under setting [2], “inactive; negative”; (Test System: AMES SALMONELLA TYPHIMURIUM, Strain/Indicator: TA100, Metabolic Activation: RAT, LIVER, S-9, AROCLOR 1254 (10%), Method: PREINCUBATION) “inactive; negative”. Further, the mutagenic call (Test System: AMES SALMONELLA TYPHIMURIUM, Strain/Indicator: TA1535, Metabolic Activation: HAMSTER, LIVER, S-9, AROCLOR 1254 (10%), Method: PREINCUBATION) was “inactive; negative”; the mutagenic call (Test System: AMES SALMONELLA TYPHIMURIUM, Strain/Indicator: TA1535, Metabolic Activation: NONE, Method: PREINCUBATION) was “inactive; negative”; the mutagenic call (Test System: AMES SALMONELLA TYPHIMURIUM, Strain/Indicator: TA1535, Metabolic Activation: RAT, LIVER, S-9, AROCLOR 1254 (10%), Method: PREINCUBATION) was “inactive; negative”; the mutagenic call (Test System: AMES SALMONELLA TYPHIMURIUM, Strain/Indicator: TA1537, Metabolic Activation: HAMSTER, LIVER, S-9, AROCLOR 1254 (10%), Method: PREINCUBATION) was “inactive; negative”; the mutagenic call under setting [3] was “inactive; negative”; the mutagenic call (Test System: AMES SALMONELLA TYPHIMURIUM, Strain/Indicator: TA1537, Metabolic Activation: RAT, LIVER, S-9, AROCLOR 1254 (10%), Method: PREINCUBATION) is “inactive; negative”. The mutagenic call under setting [4] was “inactive; negative”.

For the compound `O=C(O)C1CCCCC1`, the mutagenic call (Test System: UDS RAT GASTRIC MUCOSAL CELLS, Strain/Indicator: THY INCORP, Metabolic Activation: NONE, Method: LIQUID SCINTILLATION COUNTING) is “inactive; negative”.

Consider `O=[N+]([O-])c1cc2c3c(ccc4cccc(c43)CC2)c1`, for which the mutagenic call runs as follows: (Test System: AMES SALMONELLA TYPHIMURIUM, Strain/Indicator: TA98(1,8-DNP6), Metabolic Activation: NONE, Method: STANDARD PLATE) “active; positive”; (Test System: AMES SALMONELLA TYPHIMURIUM, Strain/Indicator: TA98(NR), Metabolic Activation: NONE, Method: STANDARD PLATE) “active; positive”; under setting [5], “active; positive”.

In the case of `Cc1cc(O)c2c(O)c3c(O)cccc3cc2c1`, the mutagenic call runs as follows: under setting [5], “inactive; negative”; under setting [6], “inactive; negative”; under setting [7], “inactive; negative”; (Test System: AMES SALMONELLA TYPHIMURIUM, Strain/Indicator: TA100, Metabolic Activation: RAT, LIVER, S-9, AROCLOR 1254, Method: STANDARD PLATE) “inactive; negative”; (Test System: AMES SALMONELLA TYPHIMURIUM, Strain/Indicator: TA1535, Metabolic Activation: NONE, Method: STANDARD PLATE) “inactive; negative”; (Test System: AMES SALMONELLA TYPHIMURIUM, Strain/Indicator: TA1535, Metabolic Activation: RAT, LIVER, S-9, AROCLOR 1254, Method: STANDARD PLATE) “inactive; negative”. Also, the mutagenic call was “active; positive” (Test System: AMES SALMONELLA TYPHIMURIUM, Strain/Indicator: TA1537, Metabolic Activation: RAT, LIVER, S-9, AROCLOR 1254, Method: STANDARD PLATE); “inactive; negative” (Test System: AMES SALMONELLA TYPHIMURIUM, Strain/Indicator: TA1538, Metabolic Activation: NONE, Method: STANDARD PLATE); “inactive; negative” under setting [4].

On to `Oc1c(Cl)c(Cl)c(O)c(Cl)c1Cl`, for which the mutagenic call reads like this: (Test System: CHINESE HAMSTER V79 CELLS, Strain/Indicator: V79 CELLS (HPRT)/6-THIOGUANINE, Metabolic Activation: NONE, Method: PREINCUBATION) “active; positive”; (Test System: CHINESE HAMSTER V-79, Strain/Indicator: V-79/6-THIOGUANINE, Metabolic Activation: NONE, Method: SUSPENSION/PLATE) “active; positive”; (Test System: CHINESE HAMSTER V-79, Strain/Indicator: V-79/OUABAIN, Metabolic Activation: NONE, Method: SUSPENSION/PLATE) “inactive; negative”; (Test System: UDS HUMAN FIBROBLASTS, Strain/Indicator: THY INCORP, Metabolic Activation: NONE, Method: AUTORADIOGRAPHY) “active; positive”.

In the case of `Cc1cnc2c(C)cc3c(nc(N)n3C)c2n1`, under setting [6], the mutagenic call was “active; positive”.

Regarding `O=C(Cl)c1ccc(C(=O)Cl)cc1`, the mutagenic call by setting is: under setting [1], “active; positive”; (Test System: AMES SALMONELLA TYPHIMURIUM, Strain/Indicator: TA98, Metabolic Activation: RAT LIVER S-9, PCB, Method: PREINCUBATION) “active; positive”; under setting [2], “active; positive”; (Test System: AMES SALMONELLA TYPHIMURIUM, Strain/Indicator: TA100, Metabolic Activation: RAT LIVER S-9, PCB, Method: PREINCUBATION) “active; positive”; (Test System: AMES SALMONELLA TYPHIMURIUM, Strain/Indicator: TA104, Metabolic Activation: NONE, Method: PREINCUBATION) “active; positive”; (Test System: AMES SALMONELLA TYPHIMURIUM, Strain/Indicator: TA104, Metabolic Activation: RAT LIVER S-9, PCB, Method: PREINCUBATION) “active; positive”. In addition, the mutagenic call (Test System: E.COLI, Strain/Indicator: WP2 UVRA, Metabolic Activation: NONE, Method: PREINCUBATION) was “active; positive” and the mutagenic call (Test System: E.COLI, Strain/Indicator: WP2 UVRA, Metabolic Activation: RAT LIVER S-9, PCB, Method: PREINCUBATION) was “active; positive”.

In the case of `Cc1cc(C)c(C)c(C)c1`, the mutagenic call (Test System: AMES SALMONELLA TYPHIMURIUM, Strain/Indicator: TA97A, Metabolic Activation: NONE, Method: STANDARD PLATE) is “active; positive”; the mutagenic call (Test System: AMES SALMONELLA TYPHIMURIUM, Strain/Indicator: TA97A, Metabolic Activation: RAT LIVER S-9, AROCLOR 1254, Method: STANDARD PLATE) is “inactive; negative”; the mutagenic call under setting [5] was “inactive; negative”; the mutagenic call (Test System: AMES SALMONELLA TYPHIMURIUM, Strain/Indicator: TA98, Metabolic Activation: RAT LIVER S-9, AROCLOR 1254, Method: STANDARD PLATE) was “inactive; negative”; the mutagenic call under setting [7] is “inactive; negative”; the mutagenic call (Test System: AMES SALMONELLA TYPHIMURIUM, Strain/Indicator: TA100, Metabolic Activation: RAT LIVER S-9, AROCLOR 1254, Method: STANDARD PLATE) was “inactive; negative”. Further, the mutagenic call is “inactive; negative” (Test System: AMES SALMONELLA TYPHIMURIUM, Strain/Indicator: TA102, Metabolic Activation: NONE, Method: STANDARD PLATE) and “inactive; negative” (Test System: AMES SALMONELLA TYPHIMURIUM, Strain/Indicator: TA102, Metabolic Activation: RAT LIVER S-9, AROCLOR 1254, Method: STANDARD PLATE).

On to `Nc1c2ccccc2nc2ccc([N+](=O)[O-])cc12`, for which the mutagenic call reads like this: (Test System: AMES SALMONELLA TYPHIMURIUM, Strain/Indicator: TA1537, Metabolic Activation: NONE) “active; positive”; under setting [3], “active; positive”.

For `CC(O)CO` (stereo not drawn) (tested in a mixture with another compound), the mutagenic call reads like this: (Test System: AMES SALMONELLA TYPHIMURIUM, Strain/Indicator: TA102, Metabolic Activation: RAT, LIVER, S-9, PHENOBARBITAL AND 5,6-BENZOFLAVONE, Method: STANDARD PLATE) “inactive; negative”; (Test System: AMES SALMONELLA TYPHIMURIUM, Strain/Indicator: TA2638, Metabolic Activation: RAT, LIVER, S-9, PHENOBARBITAL AND 5,6-BENZOFLAVONE, Method: STANDARD PLATE) “inactive; negative”; (Test System: E. COLI, Strain/Indicator: WP2 (PKM101), Metabolic Activation: RAT, LIVER, S-9, PHENOBARBITAL AND 5,6-BENZOFLAVONE, Method: STANDARD PLATE) “active; positive”; (Test System: E. COLI, Strain/Indicator: WP2 UVRA (PKM101), Metabolic Activation: RAT, LIVER, S-9, PHENOBARBITAL AND 5,6-BENZOFLAVONE, Method: STANDARD PLATE) “active; positive”.
